Measurements reported in ChEMBL document CHEMBL4613243, “Calosides A-F, Cardenolides from Calotropis gigantea and Their Cytotoxic Activity” (J Nat Prod, 2020).
Activity calls are given as the source filed them. No cut-off for these calls is given here.

Columns and labels:
PANC-1 [1] = assay: Antiproliferative activity against human PANC1 cells assessed as reduction in cell viability after 72 hrs by WST-8 assay; type: functional, cell-based; details: PANC-1, 72 h
HeLa = assay: Antiproliferative activity against human HeLa cells assessed as reduction in cell viability after 72 hrs by WST-8 assay; type: functional, cell-based
PANC-1 [2] = assay: Cytotoxicity against human PANC1 cells assessed as reduction in cell viability at 0.05 to 100 uM after 74 hrs by crystal violet staining based assay; type: functional
PANC-1 [3] = assay: Cytotoxicity against human PANC1 cells assessed as reduction in cell viability at 0.78 uM after 74 hrs by crystal violet staining based assay; type: functional

Compound | IC50 (PANC-1 [1]) [nM] | IC50 (HeLa) [nM] | Activity (PANC-1 [2]) | Activity (PANC-1 [3]) [%]
C[C@]12CC[C@H]3[C@@H](CC[C@@H]4C[C@H](O[C@@H]5O[C@H](CO)[C@@H](O)[C@@H](O)[C@H]5O)CC[C@@]43COC=O)[C@@]1(O)CC[C@@H]2C1=CC(=O)OC1 | 250 | 670 |  | 
C[C@H]1O[C@@H](O[C@@H]2CC[C@@]34CO[C@@]5(CC[C@@H]3C2)[C@@H]4CC[C@]2(C)[C@H](C3=CC(=O)OC3)CC[C@@H]25)[C@H](O)[C@H](O)[C@@H]1O | 4600 | > 10000 |  | 
C[C@]12CC[C@H]3[C@@H](CC[C@@H]4C[C@@H](O)[C@H](O)C[C@@]43C=O)[C@@]1(O)[C@H](O)C[C@@H]2C1=CC(=O)OC1 | > 10000 | > 10000 |  | 
Nc1ccn([C@@H]2O[C@H](CO)[C@@H](O)C2(F)F)c(=O)n1 [GEMCITABINE] | 5900 |  | inactive | 
C[C@]12CC[C@H]3[C@@H](CC[C@@H]4C[C@@H](O)[C@H](O)C[C@@]43CO)[C@@]1(O)CC[C@@H]2C1=CC(=O)OC1 | 5100 | > 10000 |  | 
C[C@]12CC[C@H]3[C@@H](CC[C@@H]4C[C@@H](O[C@@H]5O[C@H](CO)[C@@H](O)[C@@H](O)[C@H]5O)CC[C@@]43C=O)[C@@]1(O)CC[C@@H]2C1=CC(=O)OC1 | 150 | 380 |  | 
C[C@H]1C[C@@](O)(CC(=O)O)[C@]2(O)O[C@@H]3C[C@@]4(C=O)[C@@H](CC[C@@H]5[C@@H]4CC[C@]4(C)[C@@H](C6=CC(=O)OC6)CC[C@]54O)C[C@H]3O[C@H]2O1 | 1000 | 1600 |  | 
C[C@]12CC[C@H]3[C@@H](CC[C@@H]4C[C@H](O[C@@H]5O[C@H](CO)[C@@H](O)[C@H](O[C@H]6O[C@H](CO)[C@@H](O)[C@H](O)[C@H]6O)[C@H]5O)CC[C@@]43CO)[C@@]1(O)CC[C@@H]2C1=CC(=O)OC1 | 70 | 170 |  | 100
COC(=O)[C@@]1(C)C[C@@H](C)O[C@H]1O[C@@H]1C[C@H]2CC[C@@H]3[C@H](CC[C@]4(C)[C@@H](C5=CC(=O)OC5)C[C@@H](O)[C@]34O)[C@@]2(C(=O)O)C[C@H]1O | 5200 | > 10000 |  | 
C[C@]12CC[C@H]3[C@@H](CC[C@@H]4C[C@H](O[C@@H]5O[C@H](CO)[C@@H](O)[C@@H](O)[C@H]5O)CC[C@@]43CO)[C@@]1(O)CC[C@@H]2C1=CC(=O)OC1 | 280 | 560 |  | 
C[C@@H]1C[C@H](O)[C@]2(O)O[C@@H]3C[C@@]4(C=O)[C@@H](CC[C@@H]5[C@@H]4CC[C@]4(C)[C@@H](C6=CC(=O)OC6)CC[C@]54O)C[C@H]3O[C@@H]2O1 [CALOTROPIN] | > 10000 | > 10000 |  | 
C[C@]12CC[C@H]3[C@@H](CC[C@@H]4C[C@H](O[C@@H]5O[C@H](CO)[C@@H](O)[C@@H](O[C@H]6O[C@H](CO)[C@@H](O)[C@H](O)[C@H]6O)[C@H]5O)CC[C@@]43CO)[C@@]1(O)CC[C@@H]2C1=CC(=O)OC1 | 80 | 170 |  | 100
